Source: patent US6458847B1, “Method for screening for drugs useful in inhibition of polymerization of aβ and tau peptides” (University of Alabama at Birmingham Research Foundation, priority 1995, dated 2002)

Assays:
adult rat MTτ = experiment: Arachidonic acid dependence of tau assembly, adult rat MTτ; type: biochemical
Procedure: (§1) For most experiments, tau proteins were diluted to 2× the desired concentration in buffer A, then 1/2 in borate saline (0.1 M H3BO3, 25 mM Na2B4O7, 75 mM NaCl) supplemented with 20 mM dithiothreitol (DTT) and 2× the required concentration of free fatty acids (final pH ˜8.4). Assembly was performed at 37° C. in siliconized microfuge tubes. For evaluating the dependence of assembly on ionic strength, tau was diluted 1/10 into 111 mM Tris pH 7.2, 11 mM DTT, supplemented to give the indicated final concentrations of NaCl. At 250 mM NaCl, the measured CMC of arachidonic acid in the Tris buffering system was >2 mM. […] For staining of amyloid filaments, 4% uranyl acetate was used and the H2O rinse was omitted. […] For filament length measurements, random micrographs obtained at a nominal magnification of 15K were digitized and traced using either software from Universal Imaging Corporation or the public domain NIH Image program (for Macintosh; written by W. Rasband at the NIH and available from the Internet by anonymous ftp from zippy.nimh.nih.gov or on floppy disk from NTIS, 5285 Port Royal Rd., Springfield, Va. 22161, part number PB93-504868). […] Because short filaments were sometimes difficult to distinguish from background debri in digitized images, high concentrations of DTT were routinely used in order to maximize the production of longer filaments.

juvenile rat MTτ = biological target: T1, juvenile rat MTτ (Rattus norvegicus, UniProt P19332, DEL587-617); experiment: Fatty acid dependence of tau assembly, polymer length per field by electron microscopy; type: biochemical; details: for Polymer Mass (μm/field) / % maximum: 50 μM free fatty acid, 72 hours; for Polymer Mass (μm/field): juvenile rat MTτ, average ± S.E.M. (n = 12); for % maximum: relative to the maximal assembly achieved with arachidonic acid; for stimulation of tau assembly, qualitative examination of grids: 50 μM, below measured CMC values
T1 construct: killed by decapitation at postnatal day 11 (juveniles); from tissue; host or cells: brain microtubules of P11 Sprague-Dawley rats
Procedure: (§2) All free fatty acids were purchased in the cis conformation and at maximum available purity from Sigma Chemical Company free fatty acids were diluted into tau and amyloid samples from a 200× ethanolic stock, such that the final ethanol concentration in all samples and controls was 0.5%.
Assembly was performed at 37° C. in siliconized microfuge tubes.
(§3) For staining of amyloid filaments, 4% uranyl acetate was used and the H2O rinse was omitted. […] Because short filaments were sometimes difficult to distinguish from background debri in digitized images, high concentrations of DTT were routinely used in order to maximize the production of longer filaments.

[1] = tested on: tau purified from porcine whole brain; experiment: Arachidonic acid dependence of tau assembly, porcine whole brain tau; type: biochemical; details: 20-80 μM arachidonic acid, 66 hours; no spontaneous assembly
Procedure: as §3, with “Assembly was performed at 37° C. in siliconized microfuge tubes. […] For” for “For”

tau = experiment: Arachidonic acid stimulated polymerization, all tau preparations examined; type: biochemical; details: tau concentrations of 2.5-5 μM
Procedure: as §1

[2] = Critical micellar concentration by phase partitioning of phenylnaphthylamine; type: physicochemical; details: for CMC: free fatty acids diluted into assembly buffer
Procedure: as §2, with “0.5%. Values for the critical micellar concentration (CMC) were obtained based on the phase partitioning of […] phenylnaphthylamine (Kovatchev et al., 1981) when free fatty acids were diluted into assembly buffer.” for “0.5%.”
For most experiments, tau proteins were diluted to 2× the desired concentration in buffer A, then 1/2 in borate saline (0.1 M H3BO3, 25 mM Na2B4O7, 75 mM NaCl) supplemented with 20 mM dithiothreitol (DTT) and 2× the required concentration of free fatty acids (final pH ˜8.4). Assembly was performed at 37° C. in siliconized microfuge tubes. For evaluating the dependence of assembly on ionic strength, tau was diluted 1/10 into 111 mM Tris pH 7.2, 11 mM DTT, supplemented to give the indicated final concentrations of NaCl. At 250 mM NaCl, the measured CMC of arachidonic acid in the Tris buffering system was >2 mM.

human recombinant tau = biological target: T2, human recombinant tau (Homo sapiens, UniProt P10636); experiment: Arachidonic acid dependence of tau assembly, human recombinant tau; type: biochemical; details: 20-80 μM arachidonic acid, 66 hours; no spontaneous assembly
T2 construct: the conditions defined herein are conducive to assembly of the full length tau protein; polyhistidine tag; host or cells: E. coli
From the text: Sprague-Dawley rats were obtained from Charles River, Wilmington, Mass., and killed by decapitation at postnatal day 11 (juveniles) or at greater than six weeks of age (adults). Fresh porcine brains were obtained from Bryan Meat Packing, Westpoint Miss. Detailed protocols for the isolation of tau from whole brain or twice-cycled brain microtubules have been described above. Nonphosphorylated, recombinant human tau (htau40; Goedert et al., 1989) was the gift of Dr. Jeff Kuret, Northwestern University Medical School, Chicago, Ill. Recombinant tau was produced in E. coli as a fusion protein with a polyhistidine tag, and purified to near homogeneity by nickel-chelate and gel filtration chromatography (Carmel et al., 1994). Following purification tau isolates were dialyzed against buffer A (20 mM morpholinoethanesulfonic acid pH 6.8, 80 mM NaCl, 2 mM EGTA, 1 mM MgCl2, 0.1 mM EDTA) and stored at −80° C. Protein concentrations were determined using the method of Lowry (Lowry et al., 1951), after samples in Laemmli sample buffer (Laemmli, 1970) were precipitated with 10 volumes of 10% perchloric acid, 1% phosphotungstic acid. Bovine serum albumin was used as the standard. […] At 250 mM NaCl, the measured CMC of arachidonic acid in the Tris buffering system was >2 mM. […]

Aβ1-40 [3] = biological target: T3, Aβ1-40 (Homo sapiens, UniProt P05067); experiment: Amyloid peptide assembly, electron microscopy; type: biochemical; details: 24 hour incubation with 40 mM oleic acid or 50 mM linoleic acid
T3 construct: Aβ1-40 (Amyloid β-protein, residues 1-40, Sigma); purchased Sigma
Procedure: (§4) Aβ1-40 (Amyloid β-protein, residues 1-40, Sigma) was resuspended in Aβ assembly buffer (100 mM Tris pH 7.4, 150 mM NaCl) at a concentration of 0.5 mg/ml, and frozen in aliquots at −80° C. Thawed aliquots were diluted to […] in assembly buffer, and following a 2 hour pre-incubation, were centrifuged for 10 min at 14,000 rpm in an Eppendorf 5415C desktop centrifuge. The clarified solution was then supplemented with free fatty acids (final Aβ concentration ˜[…]), and incubated for 24 hours. Care was taken to perform all procedures at 4° C.
For staining of amyloid filaments, 4% uranyl acetate was used and the H2O rinse was omitted. […] For filament length measurements, random micrographs obtained at a nominal magnification of 15K were digitized and traced using either software from Universal Imaging Corporation or the public domain NIH Image program (for Macintosh; written by W. Rasband at the NIH and available from the Internet by anonymous ftp from zippy.nimh.nih.gov or on floppy disk from NTIS, 5285 Port Royal Rd., Springfield, Va. 22161, part number PB93-504868). […] Because short filaments were sometimes difficult to distinguish from background debri in digitized images, high concentrations of DTT were routinely used in order to maximize the production of longer filaments.

Aβ1-40 [4] = biological target: T3, Aβ1-40; experiment: Amyloid peptide assembly, thioflavin T fluorescence spectroscopy; type: biochemical; details: for fatty acid concentration giving significant increases in polymer content: thioflavin T fluorescence, 24 hours
Procedure: as §4
Fluorescence spectroscopy was performed essentially as described (Castano et al., 1995). Aliquots were diluted 1/6 into 67 mM glycine pH 9, […] thioflavin T, vortexed, and placed in a quartz cuvette. Samples were read on a Perkin Elmer LS-50B luminescence spectrometer, excitation=435 nm, emission=485 nm, slit widths=5 nm. The integrated intensity was averaged from the initial ten, 10 sec sampling intervals. The signal was stable for at least several hours. The fluorescence of five samples lacking Aβ was averaged and subtracted as background from all readings.

[5] = tested on: microtubule tau purified from P11 rat, adult rat; details: glutathione 1-10 mM
Procedure: In general, tau stored at −80° C. in buffer A was thawed at 4° C., diluted into 100 mM Tris pH 7.2 containing DTT or b-mercaptoethanol (bME), and incubated at 37° C. 100 mM MES was used for experiments requiring buffering below pH 7. Final tau concentrations were in the range of 1-10 μM. […] Samples were deposited in 10 ml aliquots onto 400 mesh nickel grids coated with 0.4% formvar, rinsed with 5 drops H2O, and stained with 5 drops of 2% uranyl acetate, the last drop sitting 1 minutes prior to blotting. Grids were examined using a JEOL JEM-100CX transmission electron microscope operated at 80 kV. For filament length measurements, micrographs obtained at a nominal magnification of 15K (FIG. 6) or 10K (FIGS. 7 and 9) were digitized using a SIT68 camera (MTI), and lengths were determined using software from Universal Imaging Corporation. Only filaments contained completely within a field and measuring at least 50 nm were included in data sets. Fields selected at random were chosen at low illumination and without the aid of the 10× binoculars, so that Formvar integrity could be assessed without viewing the filaments present.

T3 sequence (P05067 672-711 limits assumed): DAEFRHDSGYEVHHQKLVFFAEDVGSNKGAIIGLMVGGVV
T1 sequence (P19332 with tags, fused parts or gaps isoform P19332-6 DEL209-239): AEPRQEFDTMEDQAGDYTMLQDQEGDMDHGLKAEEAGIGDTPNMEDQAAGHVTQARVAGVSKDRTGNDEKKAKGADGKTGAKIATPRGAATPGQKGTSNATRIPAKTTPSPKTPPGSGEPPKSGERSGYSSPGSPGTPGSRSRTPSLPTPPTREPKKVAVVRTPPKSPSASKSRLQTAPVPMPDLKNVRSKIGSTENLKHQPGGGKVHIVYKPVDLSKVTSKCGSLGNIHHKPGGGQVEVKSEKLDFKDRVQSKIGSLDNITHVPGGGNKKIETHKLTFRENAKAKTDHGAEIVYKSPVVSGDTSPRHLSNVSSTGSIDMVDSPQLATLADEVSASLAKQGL
T2 sequence (P10636 1-441 isoform P10636-8): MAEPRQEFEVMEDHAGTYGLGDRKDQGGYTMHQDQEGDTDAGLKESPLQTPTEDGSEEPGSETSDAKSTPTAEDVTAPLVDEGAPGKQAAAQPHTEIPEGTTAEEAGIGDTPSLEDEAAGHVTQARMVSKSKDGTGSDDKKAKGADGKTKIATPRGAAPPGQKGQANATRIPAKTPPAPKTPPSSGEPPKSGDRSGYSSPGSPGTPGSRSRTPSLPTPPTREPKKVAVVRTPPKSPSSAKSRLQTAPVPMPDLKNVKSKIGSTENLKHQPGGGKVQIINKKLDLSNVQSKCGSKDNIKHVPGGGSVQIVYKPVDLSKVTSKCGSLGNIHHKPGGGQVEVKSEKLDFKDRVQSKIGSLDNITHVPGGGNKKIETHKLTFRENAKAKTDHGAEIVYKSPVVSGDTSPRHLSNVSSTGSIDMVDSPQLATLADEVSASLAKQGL

Row | SMILES | Polymer Mass (μm/field) (juvenile rat MTτ) | % maximum (juvenile rat MTτ) | CMC [2] | other results
1 | O[C@H](CS)[C@H](O)CS (racemic) [DTT, dithiothreitol] | – | – | – | decrease in total polymer mass (adult rat MTτ; assembly at 10 mM DTT compared with 0.01-1.0 mM DTT, adult tau, 50 μM arachidonic acid): > 50%
2 | CCC=CCC=CCC=CCC=CCC=CCCCC(=O)O [5,8,11,14,17-eicosapentaenoic acid] | 11.81 ± 1.51 μm/field | 48% | – | –
3 | CCCCCC=CCC=CCC=CCC=CCCCC(=O)O [5,8,11,14-eicosatetraenoic acid (20:4), 5,8,11,14-eicosatetraenoic acid] | 24.51 ± 2.58 μm/field | 100% | 0.16 mM | filament formation, tau purified from porcine whole brain [1]: Filaments were observed; lowest concentration inducing assembly (tau): 10 to 20 µM; CMC in the Tris buffering system ([2]; 250 mM NaCl, Tris buffering system): > 2 mM; filament formation, human recombinant tau (human recombinant tau): Filaments were observed; polymerization of adult rat MTτ (adult rat MTτ; arachidonic acid 10-40 μM): stimulated the polymerization; apparent threshold for stimulation of tau assembly (juvenile rat MTτ; juvenile MTτ, longest timepoint tested): less than 10 μμM
4 | CCCCCC=CCC=CCC=CCCCCCCC(=O)O [8,11,14-eicosatrienoic acid (20:3), 8,11,14-eicosatrienoic acid] | 7.99 ± 1.55 μm/field | 33% | – | –
5 | CC/C=C\C/C=C\C/C=C\CCCCCCCC(=O)O [9,12,15-linolenic acid (18:3), 9,12,15-linolenic acid] | 4.01 ± 0.72 μm/field | 16% | – | –
6 | CCCCC/C=C\C/C=C\CCCCCCCC(=O)O [9,12-linoleic acid (18:2), 9,12-linoleic acid] | 14.74 ± 3.31 μm/field | 60% | 0.21 mM | amyloid filament lengths by electron microscopy (Aβ1-40 [3]): dramatic increase in filament lengths; relative potency as inducer of amyloid assembly (Aβ1-40 [4]; at higher concentrations of free fatty acids (above 40 μM)): more potent inducer of amyloid assembly; fatty acid concentration giving significant increases in polymer content (Aβ1-40 [4]): 40 µM
7 | CCCCCCCC/C=C\CCCCCCCC(=O)O [9-oleic acid (18:1), 9-oleic acid] | 7.36 ± 1.77 μm/field | 30% | 0.59 mM | amyloid filament lengths by electron microscopy (Aβ1-40 [3]): dramatic increase in filament lengths; fatty acid concentration giving significant increases in polymer content (Aβ1-40 [4]): 40 µM
8 | CCCCCC/C=C\CCCCCCCC(=O)O [9-palmitoleic acid (16:1), 9-palmitoleic acid] | 23.69 ± 4.11 μm/field | 97% | 0.44 mM | –
9 | CCCCCC=CCC=CCCCCCCCCCC(=O)O [11,14-eicosadienoic acid (20:2), 11,14-eicosadienoic acid] | 1.20 ± 0.32 μm/field | 5% | – | –
10 | CCCCCCCCC=CCCCCCCCCCC(=O)O [11-eicosenoic acid (20:1), 11-eicosenoic acid] | 8.23 ± 1.36 μm/field | 34% | – | –
11 | CCCCC/C=C\C/C=C\C/C=C\C/C=C\CCCC(=O)OCC [ethyl ester of arachidonic acid] | – | – | – | stimulation of tau assembly, qualitative examination of grids (juvenile rat MTτ): did not appear to be stimulated
12 | N[C@@H](CCC(=O)N[C@@H](CS)C(=O)NCC(=O)O)C(=O)O [glutathione] | – | – | – | assembly of microtubule tau (rat) [5]: promoted the assembly
13 | CCCCC/C=C\C/C=C\C/C=C\C/C=C\CCCC(=O)OC [methyl ester of arachidonic acid] | – | – | – | stimulation of tau assembly, qualitative examination of grids (juvenile rat MTτ): did not appear to be stimulated
14 | CCCCCCCCCCCCCC(=O)O [myristic acid (14:0), myristic acid] | 5.50 ± 0.76 μm/field | 22% | >1 mM | –
15 | CCCCCCCCCCCCCCCC(=O)O [palmitic acid (16:0), palmitic acid] | 7.37 ± 0.92 μm/field | 30% | – | –
16 | CCCCCCCCCCCCCCCCCC(=O)O [stearic acid (18:0), stearic acid] | 3.60 ± 0.54 μm/field | 15% | >1 mM | –
